Residues, ends and D or L forms follow the SMILES beside them.
Experiments:
[1] = Parallel artificial membrane permeability assay (PAMPA), in vitro model of the BBB
Description: (§1) We then decided to evaluate the ability of our fluorinated PLG analogues 2 and 3 to cross the BBB through passive diffusion. […] The rate of permeation can be determined by the effective permeability (Pe) as well as the rate of transport values. The membrane retention value can also be obtained and reflects the strength of the interaction between the lipids that mimic the membrane and the peptide.
(§2) The buffer solution was prepared from a commercially concentrated one, supplied by pION. Following the manufacturer's instructions, system solution was adjusted to pH 7.4 using a 0.5 M NaOH solution. The compounds to be analyzed were dissolved in a mixture of buffer solution with 20% of 1-propanol used as co-solvent to ensure their solubility. The PAMPA sandwich was separated, and the donor wells were filled with 195 μL of each compound. A magnetic stirrer was placed in each well. The acceptor plate was put into the donor plate, ensuring that the underside of the membrane was in contact with the buffer. Then, 4 μL of a mixture of phospholipids from a porcine polar brain extract (20 mg mL^−1) in dodecane (composition: 12.6% phosphatidylcholine (PC), 33.1% phosphatidylethanolamine (PE), 18.5% phosphatidylserine (PS), 4.1% phosphatidylinositol (PI), 0.8% phosphatidic acid and 30.9% of other compounds) was added to the filter of each well, followed by 200 μL of buffer solution. The plate was then covered and incubated at room temperature in a saturated humidity atmosphere for 4 h under orbital agitation at 25 μm of unstirred water layer (UWL). After this period, the solution from the donor and acceptor plates was transferred to the UPLC vials. 100 μL of each acceptor and donor samples and 100 μL of t0 samples were injected into the UPLC apparatus.
(§3) Membrane retention was also calculated as the difference of product at t0 and after 4 h in the donor and acceptor compartments.

[2] = PAMPA, pH 7.4
Description: as §1, §2, §3

[3] = design: method as in PMID 12667689; settings: cited from earlier work
[4] = Isocratic hydrophobicity index φ0 by RP-HPLC; type: physicochemical; settings: RP-C18
Description: The hydrophobicity of the fluorinated analogues of PLG has then been assessed and compared to the native PLG 1 in order to investigate the specific effect imparted by the CF3 group. […] It is based on the measurement of the isocratic hydrophobicity index (φ0) which is defined as the percentage (by volume) of organic solvent required to achieve an equal distribution of compound between the polar mobile and apolar stationary phases. Thus, higher is the φ0 value, more hydrophobic is the compound. The method involves the measurement of the logarithm of retention factor k (log k) values by reversed-phase high-performance liquid chromatography (RP-HPLC) using various organic-phase concentrations in the mobile phase (in our case, the acetonitrile is used). By plotting the log k values as a function of the acetonitrile concentration, the φ0 value can be obtained from the slope and the intercept of the linear regression (φ0 = −intercept/slope). A good correlation between the φ0 and the log P values was shown.[15] The hydrophobicity index of our peptides was first measured at pH 7. […] The φ0 values were then measured at pH 2 to investigate the impact of the possible ionic form of the PLG peptides 1–3 on the hydrophobicity parameter. The lower φ0 value observed for the native PLG 1 is consistent with its expected polar ionic state (entry 1, Table 1). […] Only a slight decrease in the φ0 value is observed for the (S,S,S)-3 (entry 4, Table 1), that of the (R,S,S)-3 diastereomer remaining almost unchanged (entry 5, Table 1).
An Agilent 1200 series high-performance liquid chromatograph coupled to an ELSD detector was used. The reversed-phase HPLC measurements were carried out on a Zorbax® RX-C18 analytical column (4.6 × 250 mm, 5 μm). The mobile phase was 50 mM ammonium acetate and HPLC grade acetonitrile as organic modifier (pH 7.0) or TFA 0.1% buffer aqueous solution and 0.1% TFA HPLC grade acetonitrile (pH 2). The mobile phase flow rate was ranging from 0.1–1.0 mL min^−1. The dead time (t0) was measured by injecting sodium nitrate together with the sample at a concentration of 10 mM. The samples were dissolved at 1 mg/1 mL in water. Few drops of acetonitrile were added when the dissolution of the peptide was incomplete. The logarithm of retention factor k (log k) values were obtained according to the eqn (1):1 [drawing 1] where tR is the retention time of the compound and t0 the retention time of the unretained sodium nitrate solute.
The log k values were plotted as a function of the acetonitrile concentration. The slope (S) and the intercept (log kw) values were calculated from at least three concentrations of acetonitrile. The correlation coefficients of the linear fit were higher than 0.99. The isocratic hydrophobicity index φ0 was calculated according to the eqn (2):2 φ0 = −log kw/Swhere log kw is the log k value extrapolated to the 0% acetonitrile concentration.

[5] = pH 7.4, Effective permeability class according to the empirical BBB permeation prediction, pH 7.4, classes by ref 19
[6] = pH 7.4, Pe (× 10^6), effective permeability, pH 7.4, 4 h, 5 mM, mean ± SD
[7] = pH 7, 50 mM ammonium acetate / acetonitrile

Compound | Interaction with / retention in the membrane (in words) ([1]; pH 7.4, 4 h) | Membrane retention ([1]; pH 7.4, 4 h) [%] | Transport (%) (4 h) ([1]; pH 7.4, 4 h, 5 mM, mean ± SD) | Papp [1, 5] [×10⁻⁶ cm/s] | Papp [1, 6] [×10⁻⁶ cm/s] | Permeability / ability to cross the membrane by passive diffusion (in words) [2] | Crossing of the blood–brain barrier (BBB) [3] | φ0 (isocratic hydrophobicity index) ([4]; pH 2, TFA 0.1% / acetonitrile) | φ0 (isocratic hydrophobicity index) [4, 7]
CC(C)C[C@H](NC(=O)[C@@]1(C(F)(F)F)CCCN1)C(=O)NCC(N)=O [(R,S)-2, (R)-α-CF3-Pro-L-Leu-Gly-NH2] | strong interaction with the membrane | 30 | 0.65 ± 0.06 | < 2 | 0.31 ± 0.03 | – | – | – | –
CC(C)C[C@H](NC(=O)[C@]1(C(F)(F)F)CCCN1)C(=O)NCC(N)=O [(S,S)-2] | strong interaction with the membrane | 50 | 5.34 ± 0.08 | 2 to 4 | 2.68 ± 0.04 | – | – | – | –
CC(C)C[C@H](NC(=O)[C@@H]1CCCN1)C(=O)NCC(N)=O [compound 1, L-prolyl-L-leucyl glycinamide] (H-Pro-Leu-Gly-NH2) | no peptide was retained in the membrane | – | – | – | – | very negligible | known to cross the blood–brain barrier | 9,2 | 12,3
(2R,4S)-Ser(Ψ^CF^3,HPro)-L-Leu-Gly-NH2 [(R,S,S)-3] | – | – | – | – | – | – | – | 30,4 | 30,8
(2S,4S)-Ser(Ψ^CF^3,HPro)-L-Leu-Gly-NH2 [(S,S,S)-3] | – | – | – | – | – | – | – | 25,3 | 27,5

Reference: publication PMC9079923, “Trifluoromethylated proline analogues as efficient tools to enhance the hydrophobicity and to promote passive diffusion transport of the L-prolyl-L-leucyl glycinamide (PLG) tripeptide” (RSC Advances, 2018)
